Laboratory results reported in US10005801B2 (priority 2016, dated 2018).
Values joined by “and” are separate entries in the source; they are usually repeats but may differ in a detail not shown here. Equal entries are not always repeated. “Also recorded” adds a separate entry of the source. Where two headings read alike, the source gives them in different places.

What was measured:
[1] = format: physicochemical; details: for H2S release under weak acidic pH: pH 5 and 6, PBS buffer; for H2S release under neutral and weak basic pH: pH 7.4 and 8, PBS buffer
[2] = system: HeLa cells; assay: H2S production in cells, WSP-5 fluorescent probe imaging; format: cell-based; details: 200 μM donor, 1 h
[3] = system: H9c2 cardiomyoblasts; assay: Anoxia/reoxygenation (A/R)-induced cellular injury, CCK-8 cell viability; format: cell-based; details: for protection against A/R-induced cellular damage (cell viability): H9c2, 12, 25 and 50 μM for 1 h during anoxia, then reoxygenation
Procedure: FIG. 3B. […] During anoxia various concentrations of JK-1 and JK-2 were added into medium and incubated for 1 h, respectively. Then the cells underwent a reoxygenation process. After the treatments, the CCK-8 assay was performed to detect cell viability. Data was expressed as the mean±SEM. **P<0.01 vs the control group, #P<0.05, ##P<0.01 vs A/R alone group.
The cell counting kit (CCK)-8 was applied to measure the cell viability of HeLa cells cultured in 96-well plates. After the indicated cell treatment, 100 μL of CCK-8 solution at 1:10 dilution was added to each well and cells were incubated for a further 3 h at 37° C. Absorbance was measured at 450 nm with a microplate reader. The mean optical density (OD) of 4 wells in each group was used to calculate cell viability as follows: (experiments were performed in triplicate)
The effect of H2S as a cardioprotective agent against myocardial ischemia reperfusion (MI/R) injury is known in the art. The mechanisms include reducing oxidative stress, preserving mitochondrial function, decreasing myocardial inflammation, and improving angiogenesis. […] To establish the cellular model of MI/R injury, H9c2 cardiomyoblasts were exposed to anoxia/reoxygenation (A/R) treatment, together with increasing concentrations of H2O2 (100-400 μM). […] Since the median lethal concentration of H2O2 in H9c2 cells was approximately 400 μM, this concentration was used for our studies.
The protective effects of the disclosed compounds against A/R-induced cellular damage was examined. In these experiments, H9c2 cells were pretreated with JK-1 or JK-2 at various concentrations (12, 25 and 50 μM) for 1 h during anoxia. Cells then underwent a reoxygenation process, after which cell viability was analyzed.

[4] = system: myocardial ischemia/reperfusion (MI/R) injury; design: species or system mice; details: mouse, in vivo
[5] = Circulating free H2S level, gas chromatography and chemiluminescence; format: in vivo, mice; details: plasma, 15 minutes after administration, 50 μg/kg (p<0.05) or 100 μg/kg (p<0.001)
Procedure: FIG. 5. […] Blood was collected 15 minutes after the administration of JK-2. Circulating free H2S levels were measured from plasma samples using gas chromatography and chemiluminesence methods.

[6] = system: myocardial ischemia/reperfusion (MI/R) injury; assay: Circulating cardiac troponin I in MI/R murine model; details: 50 μg/kg (p<0.05) or 100 μg/kg (p<0.01), blood at 4 h of reperfusion
Procedure: Blood was collected at 4 hours of reperfusion, and circulating cardiac troponin I levels were measured.
Surgical occlusion of the left coronary artery (LCA), infarct size determination, and troponin I (TnI) measurements were performed as previously described. ^1C57BL6/J male mice (10-12 weeks of age) were anesthetized using pentobarbital (50 mg/kg) and ketamine (60 mg/kg) and maintained under anesthesia throughout the procedure with additional administration of pentobarbital (50 mg/kg). […] A hair removal compound was used to remove the hair on the chest of mice. The area was then cleaned using betadine and alcohol wipes alternating 3 times. The chest was opened with via a median sternotomy and the exposed ribs, muscle, and tissues were cauterized to prevent bleeding. The LCA was visualized using a dissection microscope with a fiber optic light ring, and using a 7-0 silk suture, a 3-5 mm piece of PE-10 tubing was secured over the LCA, occluding the artery. Mice were subjected to 45 min of myocardial ischemia followed by reperfusion. At the time of reperfusion, an injection of vehicle (saline), JK-1 (50 μg/kg and 100 μg/kg), or JK-2 (50 μg/kg and 100 μg/kg) was given i.c. The chest was closed in layers, closing the muscle layer first, then the skin. Mice were removed from ventilation once pedal reflex returned and it was determined that respiration was spontaneous. Mice were placed in a recovery cage and supplied with 100% O2 via a nose cone. Reperfusion was allowed for 24 h, and blood samples for TnI measurements were taken at 4 h after time of reperfusion.
Blood samples were collected via a tail vein at 4 h of reperfusion. Cardiac troponin I level was measured in serum using the Life Diagnostic high sensitivity mouse cardiac troponin I ELISA kit following the manufacturer's instructions.

[7] = system: TAC-induced heart failure; assay: Transverse aortic constriction (TAC) heart failure model, echocardiography; format: in vivo, C57BL6/J mice; details: 100 μg/kg once daily i.p. from 3 weeks post-TAC, 14 weeks
Procedure: FIG. 7. Left ventricular dimensions at end-diastole (LVEDD) and at end-systole in millimeters (mm) at baseline and following heart failure in C57BL6/J mice. Mice were subjected to transverse aortic constriction (TAC) surgery to induce pressure overload hypertrophy and heart failure with reduced ejection fraction. LVEDD and LVESD were measured using high-resolution echocardiography at baseline and every 2 weeks thereafter for a period of 14 weeks. The H2S donor, (JK1) was administered starting at 3 weeks post-TAC at a dose of 100 μg/kg administered once daily via intraperitoneal injection. […] Following heart failure the heart dilates and this adverse remodeling response contributes to reduced cardiac function.
FIG. 8. Interventricular septum thickness measured at end-diastole (IVSd) and at end-systole (IVSs) in millimeters (mm) at baseline and following heart failure in C57BL6/J mice. Mice were subjected to transverse aortic constriction (TAC) surgery to induce pressure overload hypertrophy and heart failure with reduced ejection fraction. IVSd and IVSs were measured using high-resolution echocardiography at baseline and every 2 weeks thereafter for a period of 14 weeks. The H2S donor, (JK1) was administered starting at 3 weeks post-TAC at a dose of 100 μg/kg administered once daily via intraperitoneal injection. […] Myocardial wall thinning is a significant pathological component of heart failure.
(§1) FIG. 9. Left ventricular (LV) posterior wall thickness (PW) measured at end-diastole (d) and at end-systole (s) in millimeters (mm) at baseline and following heart failure in C57BL6/J mice. Mice were subjected to transverse aortic constriction (TAC) surgery to induce pressure overload hypertrophy and heart failure with reduced ejection fraction LVPWd and LVPWs were measured using high-resolution echocardiography at baseline and every 2 weeks thereafter for a period of 14 weeks. The H2S donor, (JK1) was administered starting at 3 weeks post-TAC at a dose of 100 μg/kg administered once daily via intraperitoneal injection.
as §1, with “10.” for “9.”, “ejection fraction (EF)” for “posterior wall thickness (PW) measured at end-diastole (d)”, “fractional shortening (FS)” for “at end-systole (s) in millimeters (mm)”, “fraction. LVEF (%)” for “fraction LVPWd”, “LVFS (%)” for “LVPWs”, “injection. LVEF and LVFS are clinically utilized measures of cardiac function.” for “injection.”

[8] = 100 μM donor, PBS buffer pH 5.0, 6.0, 7.4, 8.0, time-dependent

In the case of O=C([O-])C1CCCN1P([O-])(=S)c1ccccc1.[Li+].[Li+] (centres unmarked) [JK-5], the H2S release ([1]; pH 5) was “not to release H2S at all”.
In the case of O=C([O-])C(Cc1ccccc1)NP([O-])(=S)c1ccccc1.[Li+].[Li+] (centres unmarked) [JK-2], the H2S release [1, 8] was “much-enhanced H2S releasing ability”, the “H2S release under weak acidic pH” value [1] was “much faster release” and the “H2S release under neutral and weak basic pH” value [1] was “slow and sustained H2S release”. The “H2S production in cells (WSP-5 fluorescence)” value [2] was “strong fluorescence”, the “protection against A/R-induced cellular damage (cell viability)” value [3] was “significant attenuation of A/R induced damage” and the myocardial infarct size [4] was “significantly reduced”. For the same molecule, the “reduction of infarct size per area-at-risk (INF/AAR)” value [4] was 55% and 56%, the “circulating free H2S level” value [5] was “significant increase; also recorded: significantly higher” and the “circulating cardiac troponin I level” value [6] was “significantly lowered; also recorded: significantly reduced”.
With OO [H2O2, reference compound] the “H2O2 median lethal concentration” value ([3]; H9c2 cells, A/R treatment together with H2O2 (100-400 μM)) was “approximately 400 μM”.
With O=C(O)CNP(O)(=S)c1ccccc1 (centres unmarked) [JK-1] the H2S release [1, 8] was “much-enhanced H2S releasing ability”, the “H2S release under weak acidic pH” value [1] was “only released H2S under weak acidic pH” and the “H2S release under neutral and weak basic pH” value [1] was “barely detectable H2S”. The “H2S production in cells (WSP-5 fluorescence)” value [2] was “much weaker fluorescence”, the “protection against A/R-induced cellular damage (cell viability)” value [3] was “significant attenuation of A/R induced damage” and the myocardial infarct size [4] was “significantly reduced”. For the same molecule, the “reduction of infarct size per area-at-risk (INF/AAR)” value [4] was 43% and 64%, the “interventricular septum thickness (IVSd, IVSs)” value [7] was “significantly preserved IVSd and IVSs” and the “left ventricular dilatation (LVEDD, LVESD)” value [7] was “significantly reduced left ventricular dilatation”. The “left ventricular ejection fraction (LVEF) and fractional shortening (LVFS)” value [7] was “significantly preserved both LVEF and LVFS”, the “left ventricular posterior wall thickness (LVPWd, LVPWs)” value [7] was “significantly preserved left ventricular wall thickness” and the “circulating cardiac troponin I level” value [6] was “significantly lowered; also recorded: significantly reduced”.
